The record followed here is patent US20080227829A1, “Neurogenic compounds” (priority 2007, published 2008).

Test [1] deals with dentate gyrus. Nature of the test: BrdU/DAB quantification of dividing cells in the dentate gyrus after long-term study. In kind it is in vivo, mice. The settings on record: for number of dividing cells (BrdU+) in the dentate gyrus: 25 mg/kg i.p. 42 days; for number of dividing cells (BrdU+) in the dentate gyrus, overall statement: running and non-running groups. The method, then:
Injections were administered intraperitoneally (i.p.) for forty-two days total. In addition to test injections, daily i.p. injections of 5-bromo-2-deoxyuridine (BrdU) [10 mg/ml] were administered for the first eight days at a dose of 50 mg/kg. Within each test group, eight mice were randomly selected to receive running exercise. These thirty-two mice (eight mice per injection group) were transferred daily (on Days 1-40 of the study) from their normal static housing to an automated voluntary running wheel cage for two hours a day. Non-running mice remained in their static cages throughout the study. After the long-term study of Example 1 and all behavioral testing was concluded (Day 42), mice were perfused using 4% paraformaldehyde and their brain tissue was extracted. Brain tissue was sectioned and stained for BrdU/DAB quantification of dividing cells. A second immunofluorescence stain was used for phenotyping of the newly dividing cells. Brain sections were also taken and stained with Brdu/NeuN/GFAP. Phenotype analysis was completed to determine the percentage of dividing cells co-labeled with NeuN, a marker used to identify mature neurons. Using the percentage, it was possible to calculate the total number of BrdU/NeuN co-labeled cells in the dentate gyrus.

For test [2], the system named is Adult neural progenitor cells. Nature of the test: Immunohistochemistry with lineage-specific markers (Tuj 1, GFAP, RIP). In kind it is cell-based. The method, then: Adult neural progenitor cells were plated in N2 media containing FGF2 for twenty-four hours. See Bottenstein et al., Growth of a rat neuroblastoma cell line in serum-free supplemented medium, Proc. Natl. Acad. Sci. USA 76(1) (1979) (describing components of N2 media). The cells were replaced with fresh N2 media (without FGF2) and apigenin was added. In all experiments, 5 mM apigenin dissolved in DMSO was used. As a positive control for neuronal differentiation, N2 media containing retinoic acid (RA) and forskolin (FSK) was used. As a negative control, N2 media and the equivalent amount of DMSO or N2 was used. Either a NeuroD luciferase reporter assay (purchased from Promega, cat. No. e-1980, Dual-Luciferase Reporter 1000 Assay System) was performed two days later or immunohistochemistry was performed four days later. The immunohistochemical analysis of the apigenin-treated and control cells was performed by fixing and staining the cells after four days with lineage-specific markers (Tuj 1 for neurons, GFAP for astrocytes, and RIP for oligodendrocytes). Tuj 1 is a neuron-specific class III beta-tubulin used as a marker for new neurons. GFAP (glial fibrillary acidic protein), an intermediate-filament protein which is expressed almost exclusively in the astrocytes of the central nervous system, is used as a marker for new astrocytes. RIP is a monoclonal antibody used as an early marker of developing oligodendrocytes.

The test system of test [3] is dentate gyrus. Nature of the test: BrdU/NeuN/GFAP phenotyping of newly dividing cells (neurogenesis) in the dentate gyrus. In kind it is in vivo, mice. The following applies: for number of BrdU+ cells co-labeled with NeuN (new neurons) in the dentate gyrus: 25 mg/kg i.p. 42 days, runners, vs all other groups, p<0.001. The source says: After the long-term study of Example 1 and all behavioral testing was concluded (Day 42), mice were perfused using 4% paraformaldehyde and their brain tissue was extracted. Brain tissue was sectioned and stained for BrdU/DAB quantification of dividing cells. A second immunofluorescence stain was used for phenotyping of the newly dividing cells. Brain sections were also taken and stained with Brdu/NeuN/GFAP. Phenotype analysis was completed to determine the percentage of dividing cells co-labeled with NeuN, a marker used to identify mature neurons. Using the percentage, it was possible to calculate the total number of BrdU/NeuN co-labeled cells in the dentate gyrus.

In a further test the test system is NeuroD. Nature of the test: NeuroD luciferase reporter assay. It counts as cell-based. The settings on record: 5 mM apigenin; cells first allowed to proliferate with FGF2 for twenty-four hours; 2-day treatment. On the procedure: Adult neural progenitor cells were plated in N2 media containing FGF2 for twenty-four hours. See Bottenstein et al., Growth of a rat neuroblastoma cell line in serum-free supplemented medium, Proc. Natl. Acad. Sci. USA 76(1) (1979) (describing components of N2 media).
The cells were replaced with fresh N2 media (without FGF2) and apigenin was added. In all experiments, 5 mM apigenin dissolved in DMSO was used. As a positive control for neuronal differentiation, N2 media containing retinoic acid (RA) and forskolin (FSK) was used. As a negative control, N2 media and the equivalent amount of DMSO or N2 was used. Either a NeuroD luciferase reporter assay (purchased from Promega, cat. No. e-1980, Dual-Luciferase Reporter 1000 Assay System) was performed two days later or immunohistochemistry was performed four days later. […]
For orientation: Reporter assays use an easily measured gene product as a stand-in for the process of interest.

Where [4] appears, read: 5 mM apigenin, cells first proliferating in FGF2, four days.

The structures appear in SMILES notation. “Also recorded” adds a separate entry of the source.

Turning to `O=c1cc(-c2ccc(O)cc2)oc2cc(O)cc(O)c12` [apigenin], the “number of dividing cells (BrdU+) in the dentate gyrus” value in the test with dentate gyrus [1] (non-runners, vs control non-runners and apigenin 12.5 mg/kg non-runners, p<0.01) is “significant increase in the number of dividing cells”; in the test with dentate gyrus [1] (runners, vs running control, p<0.05), “significantly more dividing cells”. Besides, the “number of dividing cells (BrdU+) in the dentate gyrus, overall statement” value in the test with dentate gyrus [1] is “increases”; in the test on dentate gyrus [1] (listed as Apigenin), “increased BrdU labeling in both running and non-running groups”. For the same molecule, the “astrocyte (GFAP) differentiation” value in test [2] (setting [4]) is recorded as 1-5%. Besides, the “oligodendrocyte (RIP) differentiation” value in test [2] (setting [4]) is 1-5%. Further, the “percentage of Tuj 1-positive neurons” value in test [2] (5 mM apigenin, directly plated into N2 media without FGF2, four days) fell in the range of 5 to 30%. Further, in test [2] (repeated experiments), the “difference in Tuj 1 or Map2ab-positive neurons with or without FGF-2 pre-treatment” value is “no significant difference”. Moreover, the figures for the “number of BrdU+ cells co-labeled with NeuN (new neurons) in the dentate gyrus” value in the test with dentate gyrus [3] and with dentate gyrus [3] (listed as Apigenin) were “significantly higher number of new neurons than all other mice in the study” and “significantly more new neurons than all other groups; also recorded: greatest increase in neurogenesis”, respectively. For the same molecule, the “differentiation of the dividing cells into neurons” value in the test with dentate gyrus [3] (overall statement) is listed as “increases”. Also, the “NeuroD-activation (luciferase) as compared to activation by RA+FSK” value in the test with NeuroD was “two-fold higher”.
